Laboratory results published in US10119958B2, “Arrays and methods for guided cell patterning” (University of Washington, priority 2007, dated 2018).
Where no end group is shown, it is not given here.

Tests used:
[1] = system: HUVE cells; assay: Quantification of HUVE cell adhesion on gold-patterned silicon substrates (cell coverage, single cell ratio); format: cell-based, human; conditions: HUVE cells cultured 18 hours; 20 μm gold squares; 378 cell adhesion regions
Procedure: Thus, quantification of single cell coverage is necessary for understanding the capability of this peptide-mediated cell adhesion process. HUVE cells were cultured on fibronectin and peptide modified platforms in standard culture media for 18 hours and stained with DAPI for cell nuclei to emit blue fluorescence. Fluorescence microscopy was used to identify single or multiple cells on gold square-based cell adhesion regions. Cell coverage and single cell population for each type of surface were quantified from 378 gold square-based cell adhesion regions (3 samples×2 areas of interest with 63 cell adhesion regions per area). Cell coverage was calculated from the ratio of gold square-based cell adhesion regions covered with cells to the total number of the cell adhesion regions in the area of interest, and single cell ratio was obtained by dividing the number of gold square-based cell adhesion regions covered with single cells to the total number of cell adhesion regions covered with cells (single or multiple). Exemplary images of adhered cells on three model platforms are shown in FIGS. 9A-D, and quantification results are shown in Table 1. As expected, the fibronectin and KREDVY modified surfaces have higher cell coverage than the REDVY modified surface due to larger number binding domains available on the former two surfaces than on the latter. Both peptide modified surfaces have much higher single cell ratios than the fibronectin modified surface. Clearly, the KREDVY modified surface is the best candidate for single cell patterning in light of both cell coverage and single cell ratio. As a side note, for electrical recording, it is easy to distinguish between single and multiple cells, allowing either type of site to be observed selectively.
HUVE cells were cultured in EGM-2 medium supplemented with bovine brain extract (BBE), hydrocortisone, hFGF-B, VEGF, R3-IGF-1, ascorbic acid, heparin, FBS, hEGF, and GA-1000. The final serum concentration was 2%. Cells were seeded on culture flasks at passage 1 and the medium was changed after 24 hours. At 70% confluency, cells were subcultured as follows. After aspiration from culture flasks, cells were rinsed with 2-3 ml of HEPES-BSS buffer solution for 3 times, followed by incubation with 2 ml of trypsin/EDTA solution. The trypsinization process continued until about 90% of the cells were collected. After cells were released, the trypsin was neutralized in the flask with 4 ml of TNS, and the detached cells were transferred to a 15-ml sterile centrifuge tube. The harvested cells were centrifuged at 220 g for 5 minutes. Cells were diluted in growth medium. Cells at a concentration of 1.5×10^5 cells/ml were seeded on the substrates. The substrates were incubated for 18 hours before fixation with a mixture of 2% glutaraldehyde and paraformaldehyde in phosphate buffer solution for optical microscopy and with 4% paraformaldehyde for fluorescence microscopy.

[2] = system: HUVE cells; assay: Cell viability assay (apoptosis and necrosis, Annexin V / propidium iodide) of patterned HUVE cells; format: cell-based, human; conditions: after 7 days of cell adhesion
Excerpt: Retaining cell viability after cell adhesion is essential for cell biology studies and biomedical applications such as cell-based sensors and drug screening microarrays. The viability of cells patterned on the three model platforms were studied with an apoptosis assay noted in EXAMPLE section. FIGS. 10A-F show fluorescence images of HUVE cells on cell patterning platforms immobilized with (a) fibronectin, (b) REDVY peptide, and (c) KREDVY peptide after 7 days of cell adhesion. Cells on the platform with chemically bound fibronectin appeared apoptotic and necrotic (FIGS. 10A and 10D). This might be caused by the competitive adhesion of multiple cells on a limited surface area of the gold square-based cell adhesion regions, hindering individual cell growth and survival. […] Because the conformation of fibronectin protein on the gold square-based cell adhesion regions varies from site to site, the degree of interactions of HUVE cells with the binding peptides of the protein and the number of cells attached on each site can differ from pattern to pattern.
VYBRANT apoptosis assay allows for the simultaneous visualization of viable, necrotic, and apoptotic cells on substrates. Necrosis results from direct cell damage; apoptosis is genetically-programmed cell death in which cells effectively commit suicide. […] The substrates were incubated with 100 μL of Annexin V and 2 μL of PI solution for 15 minutes at room temperature, washed twice with binding buffer, and imaged with a fluorescence microscope.

[3] = system: RAW264.7 cells (murine monocyte/macrophage); assay: Synchrotron FTIR spectromicroscopy of patterned macrophage cells exposed to LPS; format: cell-based; conditions: for peak of amide I group post-exposure: single cells, eight electrodes of two substrates
Excerpt: Cells in an isolated state (e.g., one cell on each microelectrode) generally respond differently to an external stimulus than when they are in a communicating state (e.g., a cluster of cells on a microelectrode).
IR spectra and optical reflectance DIC images were acquired from cells on the patterned substrates with single or a group of macrophage cells on each electrode both before and after cellular exposure to LPS. Synchrotron FTIR spectra were acquired from cell-patterned surfaces with a Nicolet Magna 760 FTIR bench and a Nicolet Nic-Plan™ IR microscope equipped with a computer-controlled x-y-z sample stage (via Nicolet Atlμs™ and OMNIC software) and an MCT-A detector at Beamline 1.4.3 of the Advanced Light Source (ALS) in Lawrence Berkeley National Laboratory, Berkeley. C A. Martin, M. C. and McKinney, R. W., Proceed. Mater. Res. Soc. 524, 11-15, 1998; C A. Martin, M. C. and McKinney, R. W., Proceedings of the Low Energy Electrodynamics in Solids, '99 Conference, Pécs, Hungary, Special Issue of Ferroelectrics, 249, 1-10, 2001. In order to align the incident IR beam onto the substrate, an IR map (with 2-10 μm step size in x-y plane) was acquired around a gold electrode for a full IR range of 400-10,000 wave numbers. Under this condition, the whole spectrum appeared as a broad peak and an intensity profile was given for the mapped region. The x, y positions were adjusted so that the highest intensity region of the beam was aligned with the center of the gold electrode. The samples were measured at wave numbers of 650-10,000 cm^−1 using an XT-KBr beamsplitter and an MCT detector. The synchrotron infrared light is focused to a diffraction-limited spot size with a wavelength-dependent diameter of approximately 3-10 μm across the mid-IR range of interest. Carr, G. L. Review of Scientific Instruments 72, 1613-1619, 2001; and Dumas, P., et al., Faraday Discussions 126, 289-302, 2004. An on-stage temperature controlled mini incubator was used to maintain a proper environment for cellular analysis. Prior to infrared analysis, dead and loosely bound cells were removed from the substrate by three PBS washes (to eliminate the possible interference of dead and loosely bound cells to the real-time signals generated by live cells), the cell culture medium was replaced with fresh sterile medium, and the substrate covered with a layer of the medium was transferred to the mini incubator. The spectra were acquired in less than 10 minutes following the sample transfer to ensure cell viability and to minimize possible interference from environmental changes. Synchrotron FTIR spectra of 128 scans at a resolution of 8 cm^−1 were acquired from individual electrodes patterned with cells. Background signals were collected from the silicon oxide surface of the same substrate right before the data collection. […] All spectra were baseline-corrected and normalized to account for the continuous decay of the synchrotron beam in the storage ring. An appropriately scaled water vapor spectrum was subtracted from the spectra of cells. The spectra obtained with conventional FTIR were acquired from cell-patterned surfaces using a Thermo-Electron Nexus 870 bench and a Thermo-Electron Continuum infrared microscope with an MCT-A detector at Beamline 1.4.4 of the ALS under the same conditions set for the synchrotron measurements, except that an aperture size of 90 μm×90 μm were employed to maximize the signal intensity.

[4] = system: RAW264.7 cells (murine monocyte/macrophage); assay: DIC reflectance microscopy of macrophage morphology after LPS exposure; format: cell-based; conditions: LPS 0.1, 1.0 and 10 μg/mL, 21 hours
Excerpt: Cell-cultured surfaces were examined with a differential interference contrast (DIC) reflectance microscope (Nikon E800 Upright Microscope, NY, N.Y.) equipped with DIC-20× (N.A. 0.46) and DIC-50× (N.A. 0.8) objectives. Images were acquired with a Coolsnap camera (series A99G81021, Roper Scientific Inc., AZ, USA) attached to the microscope and a computer. […] FIGS. 12A, 12C, and 12E are optical DIC images of electrodes with a single cell, double cells, and triple cells, respectively.

[5] = LPS 1 μg/mL, 21 hours, 10 μm×10 μm electrodes, mean±S.D. of four electrodes

Substance	% Cell Coverage [1] [%]	% Ratio of single-cell sites/total cell sites [1] [%]	cell apoptosis / viability (Annexin V) [2]	cell necrosis (propidium iodide) [2]	Amide I wave number, Double cells [3, 5] [cm⁻¹]	Amide I wave number, Single cell [3, 5] [cm⁻¹]	Amide I wave number, Triple cells [3, 5] [cm⁻¹]	peak of amide I group post-exposure ([3]; 0.1 μg/mL LPS, 21 hours) [cm⁻¹]	peak of amide I group post-exposure ([3]; 1 μg/mL LPS, 21 hours) [cm⁻¹]	peak of amide I group post-exposure ([3]; 10 μg/mL LPS, 21 hours) [cm⁻¹]	shift in wave number ([3]; single-cell platform, LPS 1.0 μg/mL) [cm⁻¹]	cell morphology [4]
Fibronectin	83.47 ± 3.20	27.41 ± 3.64	apoptotic	necrotic								
KREDVY	78.40 ± 3.96	72.17 ± 2.49	remained viable throughout 7 days	No cell necrosis was observed								
Arg-Glu-Asp-Val-Tyr (REDVY)	56.28 ± 3.03	62.25 ± 3.23	became apoptotic at day 7	No cell necrosis was observed								
lipopolysaccharide [LPS]					1665 ± 2.6	1661 ± 1.6	1658 ± 3.4	1659 ± 1.7	1661 ± 1.0	1676 ± 1.0	30	enlarged, dendritic-like shape
